Results reported in PubChem BioAssay (NCI).
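Assay format: 96-well plates, 48-hour exposure. GI50 is the concentration that inhibits growth by half. TGI denotes the concentration required for complete inhibition of growth.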

Assays:
Assay in all cases: inhibition of tumour cell growth, NCI panel, 48 h
CCRF-CEM leukemia = system: CCRF-CEM leukemia
HCT-15 colon = system: HCT-15 colon
PC-3 prostate = system: PC-3 prostate
A549 NSCLC = system: A549 NSCLC
NCI-H460 lung = system: NCI-H460 lung
LOX IMVI melanoma = system: LOX IMVI melanoma
SW-620 colon = system: SW-620 colon
SNB-19 CNS = system: SNB-19 CNS
NCI-H23 lung = system: NCI-H23 lung
SF-539 CNS = system: SF-539 CNS
OVCAR-8 ovarian = system: OVCAR-8 ovarian
UACC-257 melanoma = system: UACC-257 melanoma
OVCAR-5 ovarian = system: OVCAR-5 ovarian
SK-MEL-2 melanoma = system: SK-MEL-2 melanoma
HL-60(TB) leukemia = system: HL-60(TB) leukemia
MALME-3M melanoma = system: MALME-3M melanoma
SK-MEL-28 melanoma = system: SK-MEL-28 melanoma
A498 renal = system: A498 renal
CAKI-1 renal = system: CAKI-1 renal
M14 melanoma = system: M14 melanoma
MDA-MB-435 = system: MDA-MB-435
SF-268 CNS = system: SF-268 CNS
MCF7 breast = system: MCF7 breast
ACHN renal = system: ACHN renal
HCT-116 colon = system: HCT-116 colon
NCI/ADR-RES ovarian = system: NCI/ADR-RES ovarian
IGROV1 ovarian = system: IGROV1 ovarian
SN12C renal = system: SN12C renal
SR leukemia = system: SR leukemia
RXF 393 renal = system: RXF 393 renal
EKVX NSCLC = system: EKVX NSCLC
K-562 leukemia = system: K-562 leukemia
MDA-MB-468 breast = system: MDA-MB-468 breast
NCI-H522 lung = system: NCI-H522 lung
OVCAR-3 ovarian = system: OVCAR-3 ovarian
BT-549 breast = system: BT-549 breast
HOP-92 NSCLC = system: HOP-92 NSCLC
TK-10 renal = system: TK-10 renal
OVCAR-4 ovarian = system: OVCAR-4 ovarian
RPMI-8226 leukemia = system: RPMI-8226 leukemia
U251 CNS = system: U251 CNS
HCC-2998 colon = system: HCC-2998 colon
HT29 colon = system: HT29 colon
SK-OV-3 ovarian = system: SK-OV-3 ovarian
SK-MEL-5 melanoma = system: SK-MEL-5 melanoma
UACC-62 melanoma = system: UACC-62 melanoma
UO-31 renal = system: UO-31 renal
786-0 renal = system: 786-0 renal
HS 578T breast = system: HS 578T breast
DU-145 prostate = system: DU-145 prostate
COLO 205 colon = system: COLO 205 colon
HOP-62 NSCLC = system: HOP-62 NSCLC
KM12 colon = system: KM12 colon
NCI-H226 lung = system: NCI-H226 lung
MDA-MB-231 breast = system: MDA-MB-231 breast
SF-295 CNS = system: SF-295 CNS
SNB-75 CNS = system: SNB-75 CNS
MOLT-4 leukemia = system: MOLT-4 leukemia
T-47D breast = system: T-47D breast

## O=C1NC(=S)S/C1=C\c1cn(-c2ccccc2)nc1-c1ccc([N+](=O)[O-])cc1
CCRF-CEM leukemia
  GI50: 2.33 µM
  TGI: > 100 µM
HCT-15 colon
  GI50: 2.1 µM
  TGI: 12.9 µM
PC-3 prostate
  GI50: 2.71 µM
  TGI: > 100 µM
A549 NSCLC
  GI50: 3.16 µM
  TGI: 25.3 µM
NCI-H460 lung
  GI50: 2.05 µM
  TGI: 5.8 µM
LOX IMVI melanoma
  GI50: 3.22 µM
  TGI: 12.8 µM
SW-620 colon
  GI50: 3.27 µM
  TGI: > 100 µM
SNB-19 CNS
  GI50: 3.46 µM
  TGI: 23.2 µM
NCI-H23 lung
  GI50: 2.19 µM
  TGI: 8.15 µM
SF-539 CNS
  GI50: 3.45 µM
  TGI: 13.8 µM
OVCAR-8 ovarian
  GI50: 3.68 µM
  TGI: 23.4 µM
UACC-257 melanoma
  GI50: 2.43 µM
  TGI: 7.67 µM
OVCAR-5 ovarian
  GI50: 5.53 µM
  TGI: 26.7 µM
SK-MEL-2 melanoma
  GI50: 2.42 µM
  TGI: 7.46 µM
HL-60(TB) leukemia
  GI50: 2.78 µM
  TGI: 21.2 µM
MALME-3M melanoma
  GI50: 1.96 µM
  TGI: 6.4 µM
SK-MEL-28 melanoma
  GI50: 2.68 µM
  TGI: 9.82 µM
A498 renal
  GI50: 2.68 µM
  TGI: 8.93 µM
CAKI-1 renal
  GI50: 3.04 µM
  TGI: 13.5 µM
M14 melanoma
  GI50: 3.4 µM
  TGI: 14.2 µM
MDA-MB-435
  GI50: 2.86 µM
  TGI: 11.7 µM
SF-268 CNS
  GI50: 3.01 µM
  TGI: > 100 µM
MCF7 breast
  GI50: 2.74 µM
  TGI: > 100 µM
ACHN renal
  GI50: 3.04 µM
  TGI: 13.4 µM
HCT-116 colon
  GI50: 2.71 µM
  TGI: 10.9 µM
NCI/ADR-RES ovarian
  GI50: 2.83 µM
  TGI: 12.3 µM
IGROV1 ovarian
  GI50: 3.4 µM
  TGI: 14.8 µM
SN12C renal
  GI50: 2.53 µM
  TGI: 15.2 µM
SR leukemia
  GI50: 4.3 µM
  TGI: > 100 µM
RXF 393 renal
  GI50: 3.2 µM
  TGI: 8.61 µM
EKVX NSCLC
  GI50: 2.6 µM
  TGI: 10.4 µM
K-562 leukemia
  GI50: 2.53 µM
  TGI: > 100 µM
MDA-MB-468 breast
  GI50: 1.9 µM
  TGI: 10.8 µM
NCI-H522 lung
  GI50: 2.39 µM
  TGI: 18.7 µM
OVCAR-3 ovarian
  GI50: 2.95 µM
  TGI: 12.4 µM
BT-549 breast
  GI50: 2.15 µM
  TGI: 6.51 µM
HOP-92 NSCLC
  GI50: 2.73 µM
  TGI: 8.64 µM
TK-10 renal
  GI50: 3.81 µM
  TGI: > 100 µM
OVCAR-4 ovarian
  GI50: 2.6 µM
  TGI: 16.4 µM
RPMI-8226 leukemia
  GI50: 2.66 µM
  TGI: > 100 µM
U251 CNS
  GI50: 2.94 µM
  TGI: 11 µM
HCC-2998 colon
  GI50: 2.88 µM
  TGI: 12.6 µM
HT29 colon
  GI50: 3.86 µM
  TGI: 89.5 µM
SK-OV-3 ovarian
  GI50: 3.33 µM
  TGI: 12.9 µM
SK-MEL-5 melanoma
  GI50: 1.34 µM
  TGI: 3.3 µM
UACC-62 melanoma
  GI50: 1.23 µM
  TGI: 3.18 µM
UO-31 renal
  GI50: 2.5 µM
  TGI: 11.9 µM
786-0 renal
  GI50: 3.49 µM
  TGI: 13.5 µM
HS 578T breast
  GI50: 2.56 µM
  TGI: 9.27 µM
DU-145 prostate
  GI50: 3.63 µM
  TGI: > 100 µM
COLO 205 colon
  GI50: 3.5 µM
  TGI: 17.6 µM
HOP-62 NSCLC
  GI50: 3.45 µM
  TGI: 16.5 µM
KM12 colon
  GI50: 3.34 µM
  TGI: 15.4 µM
NCI-H226 lung
  GI50: 2.49 µM
  TGI: 12.1 µM
MDA-MB-231 breast
  GI50: 4.17 µM
  TGI: 16.9 µM
SF-295 CNS
  GI50: 2.39 µM
  TGI: 11.2 µM
SNB-75 CNS
  GI50: 1.83 µM
  TGI: 11.5 µM
MOLT-4 leukemia
  GI50: 2.89 µM
  TGI: > 100 µM

## CN(C)CCOc1ccc(C(=O)C2[C@H](c3ccc(Cl)cc3)[C@@H](c3ccccc3)NC23C(=O)Nc2ccc(Br)cc23)cc1 (some centres not stated)
CCRF-CEM leukemia
  GI50: 3.09 µM
  TGI: 7.86 µM
HCT-15 colon
  GI50: 2.6 µM
  TGI: 4.95 µM
PC-3 prostate
  GI50: 2.48 µM
  TGI: 4.94 µM
A549 NSCLC
  GI50: 2.51 µM
  TGI: 4.85 µM
NCI-H460 lung
  GI50: 2.71 µM
  TGI: 5.22 µM
LOX IMVI melanoma
  GI50: 2.42 µM
  TGI: 4.61 µM
SW-620 colon
  GI50: 2.63 µM
  TGI: 5.17 µM
SNB-19 CNS
  GI50: 2.63 µM
  TGI: 4.94 µM
NCI-H23 lung
  GI50: 2.62 µM
  TGI: 5.03 µM
SF-539 CNS
  GI50: 2.64 µM
  TGI: 4.89 µM
OVCAR-8 ovarian
  GI50: 2.58 µM
  TGI: 5.01 µM
UACC-257 melanoma
  GI50: 2.53 µM
  TGI: 4.94 µM
OVCAR-5 ovarian
  GI50: 2.23 µM
  TGI: 4.34 µM
SK-MEL-2 melanoma
  GI50: 2.68 µM
  TGI: 5.16 µM
HL-60(TB) leukemia
  GI50: 2.89 µM
  TGI: 6.75 µM
MALME-3M melanoma
  GI50: 2.43 µM
  TGI: 4.81 µM
SK-MEL-28 melanoma
  GI50: 2.65 µM
  TGI: 4.88 µM
A498 renal
  GI50: 2.53 µM
  TGI: 4.99 µM
CAKI-1 renal
  GI50: 2.38 µM
  TGI: 4.54 µM
M14 melanoma
  GI50: 2.89 µM
  TGI: 5.45 µM
MDA-MB-435
  GI50: 2.59 µM
  TGI: 4.84 µM
SF-268 CNS
  GI50: 2.47 µM
  TGI: 5.46 µM
MCF7 breast
  GI50: 2.41 µM
  TGI: 5.05 µM
ACHN renal
  GI50: 2.55 µM
  TGI: 4.77 µM
HCT-116 colon
  GI50: 2.4 µM
  TGI: 4.82 µM
NCI/ADR-RES ovarian
  GI50: 2.68 µM
  TGI: 5.07 µM
IGROV1 ovarian
  GI50: 2.51 µM
  TGI: 4.79 µM
SN12C renal
  GI50: 2.35 µM
  TGI: 4.55 µM
T-47D breast
  GI50: 2.33 µM
  TGI: 5.18 µM
RXF 393 renal
  GI50: 1.65 µM
  TGI: 3.61 µM
EKVX NSCLC
  GI50: 2.24 µM
  TGI: 4.4 µM
K-562 leukemia
  GI50: 2.73 µM
  TGI: 9.03 µM
MDA-MB-468 breast
  GI50: 2.4 µM
  TGI: 4.68 µM
NCI-H522 lung
  GI50: 2.87 µM
  TGI: 5.56 µM
OVCAR-3 ovarian
  GI50: 2.24 µM
  TGI: 4.57 µM
BT-549 breast
  GI50: 3 µM
  TGI: 5.82 µM
HOP-92 NSCLC
  GI50: 1.74 µM
  TGI: 3.8 µM
TK-10 renal
  GI50: 2.67 µM
  TGI: 5.61 µM
OVCAR-4 ovarian
  GI50: 2.47 µM
  TGI: 4.91 µM
RPMI-8226 leukemia
  GI50: 3.33 µM
  TGI: 8.37 µM
U251 CNS
  GI50: 2.59 µM
  TGI: 4.96 µM
HCC-2998 colon
  GI50: 2.22 µM
  TGI: 4.39 µM
HT29 colon
  GI50: 2.47 µM
  TGI: 5.2 µM
SK-OV-3 ovarian
  GI50: 4.39 µM
  TGI: 16.3 µM
SK-MEL-5 melanoma
  GI50: 2.52 µM
  TGI: 4.71 µM
UACC-62 melanoma
  GI50: 2.5 µM
  TGI: 4.74 µM
UO-31 renal
  GI50: 2.3 µM
  TGI: 4.63 µM
786-0 renal
  GI50: 2.68 µM
  TGI: 4.95 µM
HS 578T breast
  GI50: 2.18 µM
  TGI: 6.88 µM
DU-145 prostate
  GI50: 2.7 µM
  TGI: 5 µM
COLO 205 colon
  GI50: 2.75 µM
  TGI: 5.37 µM
HOP-62 NSCLC
  GI50: 2.69 µM
  TGI: 5.56 µM
KM12 colon
  GI50: 2.8 µM
  TGI: 5.46 µM
NCI-H226 lung
  GI50: 2.65 µM
  TGI: 5.6 µM
MDA-MB-231 breast
  GI50: 2.41 µM
  TGI: 4.59 µM
SF-295 CNS
  GI50: 2.48 µM
  TGI: 4.68 µM
SNB-75 CNS
  GI50: 1.7 µM
  TGI: 5.81 µM
MOLT-4 leukemia
  GI50: 2.58 µM
  TGI: 6.53 µM
